Measured values reported in patent EP2093222A1, “Polyisoprenoid epoxides useful for decreasing cholesterol and/or increasing coenzyme Q biosynthesis” (NEWBIOTECHNIC, S.A., priority 2008, dated 2009).

How the values were obtained:
HepG2 cells [1] = assay: Biosynthesis of cholesterol and CoQ by HepG2 cells: incorporation of [3H]mevalonate, lipid extraction, HPLC with on-line detection of radioactivity; format: cell-based, human; settings: for Coenzyme Q10: labeling of CoQ
Experimental: (§1) Human hepatoblastoma (HepG2) cells (cell line derived from a human liver cancer that contains primarily CoQ with a decaprenyl side-chain available in ATCC (Cat. No. HB-8065), obtained from LGC Prochem, UK) were cultured in 10 ml DMEM medium (Invitrogen) containing 1 g glucose per 100 ml, 10% fetal bovine serum, penicillin (100 units per ml) and streptomycin ([…]). When 70% confluency was reached, the medium was changed and the compounds to be investigated added in 50-100 µl dimethylsulfoxide to give a final concentration of 2 µM or in the case of tocotrienols 5 µM. Twenty-four hours later, 0.5 mCi [^3H]mevalonate (3.25 Ci/mmol) was added and incubation continued for an additional 8 hours. When the substrate was [^3H]lanosterol (0.28 Ci/mmol) the amount added was 5 µCi. Finally, the cells were harvested by trypsinisation and stored at -20° C for later analysis.
(§2) Lipids were extracted from cells with chloroform:methanol:water (1:1:0.3), at 37°C for 1 hr with magnetic stirring (Ericsson, J., Runquist, M., Thelin, A., Andersson, M., Chojnacki, T., and Dallner, G. (1993) J Biol Chem 268(2), 832-838). The extracts thus obtained were adjusted to achieve a final chloroform:methanol:water ratio of 3:2:1 and complete phase separation then accomplished by centrifugation. The lower chloroform phase was removed and evaporated to dryness under a flow of nitrogen and the residue subsequently re-dissolved in chloroform. These solutions were placed onto a silica column (50 mg/1.5 ml; Extract-Clean, Alltech, Deerfield, IL) and thereafter eluted with 6 ml chloroform. After evaporation of the solvents, the neutral lipids were dissolved in chloroform:methanol (2:1).
(§3) For analysis of cholesterol, cholesterol metabolites, squalene, and CoQ, the samples were subjected to reversed-phase HPLC using a Supelcosil LC-18 column (3 µm, 4.0 x 75 mm) equipped with an LC-18 Supelguard (Supelco) column (Ericsson, J., Thelin, A., Chojnacki, T., and Dallner, G. (1992) J Biol Chem 267(27), 19730-19735). For separation, a stepwise gradient involving methanol:water (9:1) in pump system A and methanol:2-propanol:hexane (2:1:1) in pump system B was employed at a flow rate of 1.1 ml/min. The gradient began at 15% solvent B, with increases to 47% after 8 min, 67% after 16 min and 100% after 24 min. The lipids in the eluent were monitored at 210 nm and 275 nm with a UV detector and labeling of radioactive products was measured with on-line detector of radioactivity. Ergosterol and CoQ6 were used as internal standards.

HepG2 cells [2] = assay: Biosynthesis of cholesterol from [3H]lanosterol in the presence of inhibitors; format: cell-based, human; settings: for Cholesterol: 2 µM tetraepoxysolanesol or ketoconazole or 0.2 µM RO 48-8071, 24 hrs, then [3H]lanosterol 8 hrs, means ± SE of 3 experiments; for cholesterol synthesis with [3H]lanosterol as precursor: result in words
Experimental: as §1, §2, §3

HepG2 cells [3] = assay: Biosynthesis of cholesterol and CoQ by HepG2 cells: incorporation of [3H]mevalonate, lipid extraction, HPLC with on-line detection of radioactivity; format: cell-based; settings: Homo sapiens, [3H]mevalonate incorporation into cholesterol, read-out: inhibition (reduction) of cholesterol synthesis
[4] = 2 µM tetraepoxysolanesol or ketoconazole or 0.2 µM RO 48-8071, 24 hrs, then [3H]mevalonate 8 hrs, means ± SE
[5] = 2 µM tetraepoxysolanesol or ketoconazole or 0.2 µM RO 48-8071, 24 hrs, then [3H]mevalonate 8 hrs, means ± SE, n.d. = not detectable
[6] = 2 µM, 24 hours, then [3H]mevalonate for 8 hours, means ± SD (n = 4)
[7] = 2 µM, 24 hours, then [3H]mevalonate for 8 hours, labeling of cholesterol, means ± SD (n = 4)

Compound	Coenzyme Q10 (HepG2 cells [1]; [6])	Cholesterol (HepG2 cells [1]; [7])	other results
CC(=O)N1CCN(c2ccc(OCC3COC(Cn4ccnc4)(c4ccc(Cl)cc4Cl)O3)cc2)CC1 (centres unmarked) [Ketoconazole, reference compound]			CQ10 (HepG2 cells [1]; [4]): 2.4 ± 0.3 cpm/pg protein; Cholesterol (HepG2 cells [1]; [5]): 25 ± 4 cpm/pg protein; Lanosterol (HepG2 cells [1]; [5]): 58 ± 16 cpm/pg protein; Cholesterol (HepG2 cells [2]): 1.3 ± 0.3 cpm/pg protein; cholesterol synthesis with [3H]lanosterol as precursor (HepG2 cells [2]): inhibited
CC(C)=CCC/C(C)=C/CC/C(C)=C/CC/C(C)=C/CO [Geranylgeraniol]	107 ± 11 % of control	102 ± 5 % of control	
CC(C)=CCC/C(C)=C/CC/C(C)=C/CC/C=C(\C)CC/C=C(\C)CCC=C(C)C [Squalene]	111 ± 8 % of control	30 ± 5 % of control	inhibition at 2 µM (HepG2 cells [3]): 70%
Vitamin K2	127 ± 18 % of control	67 ± 7 % of control	inhibition (reduction) of cholesterol synthesis (HepG2 cells [1]; 2 µM, [3H]mevalonate incorporation into cholesterol): 33%; elevation (stimulation) of CoQ synthesis (HepG2 cells [1]; 2 µM, [3H]mevalonate labeling of CoQ): 27%
CC(C)=CCC/C(C)=C/CC/C(C)=C/CO [Farnesol]	100 ± 4 % of control	101 ± 3 % of control	
CC(=O)OC/C=C(\C)CC/C=C(\C)CC/C=C(\C)CCC=C(C)C [Geranylgeranyl-acetate]	109 ± 12 % of control	102 ± 4 % of control	
C=CCN(C)CCCCCCOc1ccc(C(=O)c2ccc(Br)cc2)c(F)c1 [RO 48-8071, reference compound]			CQ10 (HepG2 cells [1]; [4]): 2.1 ± 0.2 cpm/pg protein; 2,3-Oxido squalene (HepG2 cells [1]; [5]): 91 ± 10 cpm/pg protein; 2,3:22,23-Dioxidosqualene (HepG2 cells [1]; [5]): 108 ± 22 cpm/pg protein; Cholesterol (HepG2 cells [2]): 10.1 ± 1.2 cpm/pg protein; cholesterol synthesis with [3H]lanosterol as precursor (HepG2 cells [2]): neither tetraepoxysolanesol or RO 48-8071 inhibited
Solanesyl-acetate	145 ± 18 % of control	4 ± 2 % of control	
Farnesyl-acetate	105 ± 8 % of control	103 ± 4 % of control	
Solanesol	138 ± 14 % of control	3 ± 1 % of control	
